Experimental data: patent US8557816B2, “Aurora kinase modulators and method of use” (Amgen Inc., priority 2007, dated 2013)
Like-named read-outs stand apart in the source and are kept apart here.

Columns and labels:
AuroraB = biological target: T1, AuroraB (Homo sapiens, UniProt Q96GD4); experiment: AuroraB Homogeneous Time Resolved Fluorescent (HTRF) kinase assay; assay type: biochemical
T1 construct: 20 μL of AuroraB FL H is for a final volume of 41 μL; His
Summary of the method: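 Full-length His-tagged kinase phosphorylates biotinylated Histone H3 (0.1 μM final) with ATP in pH 7.5 HEPES containing MgCl, MnCl, DTT and BSA for about 90 min. EDTA-containing detection mix with SA-APC and Eu-anti-phosphoHistone H3 then equilibrated about 60 min; HTRF read with 320 nm excitation, emissions 615/655 nm.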

HeLa cells = experiment: HeLa cell 24 hr ploidy assay (DNA content); assay type: cell-based
Description: HeLa Cell 24 hr Ploidy Assay Protocol
The purpose of this assay is to evaluate the ability of selected individual compounds to induce Deoxyribonucleic acid (DNA) content (ploidy) in cells through failed cell division. Cell cycle analysis is a rapid and efficient way to evaluate the status of DNA content (ploidy) of a given cell. HeLa cells (1×10^4 HeLa cells/well) in 100 ul of media (MEM+10% FBS) were plated in 96-well plates (Packard View) and cultured for 24 hrs at 37° C. maintained in a 5% CO2 atmosphere. […] The compounds were serially diluted in DMSO (0.25% final concentration). The cells were fixed (3.7% Formaldehyde and 1% glutaraldehyde) and permeabilized (1×PBS with 1% BSA and 0.2% Triton X-100) in preparation for nuclear staining. The well plates were stained for 45 minutes at RT in the dark using Hoechest 33342 nuclear stain at 0.5 ug.ml (Stock of 10 mg/ml, Invitrogen, CA, Cat # H3570). The nuclear stain was removed by aspiration and the cells were washed with wash buffer. A Cellomics Array Scan Vti plate reader was used to acquire the DNA ploidy data of the cells using Cell Cycle bioapplication. Numbers for each of “valid cell count/well”, “% of 4N cells” and “% of >4Ncells” were calculated with the assistance of an Activity Base 5.1ca software and dose curves were generated using an XLFit software. With XLFit, final EC50 IP and EC50 transit values, as well as the Max and Min, were calculated for each curve.

AuroraA-TPX2 = biological target: T2, AuroraA-TPX2 (Homo sapiens, UniProt O14965); experiment: AuroraA-TPX2 Homogeneous Time Resolved Fluorescent (HTRF) kinase assay; assay type: biochemical
T2 construct: 20 μL of AuroraA-TPX2 KD GST for a final volume of about 41 μL; GST
T2 sequence (O14965 133-383 limits assumed): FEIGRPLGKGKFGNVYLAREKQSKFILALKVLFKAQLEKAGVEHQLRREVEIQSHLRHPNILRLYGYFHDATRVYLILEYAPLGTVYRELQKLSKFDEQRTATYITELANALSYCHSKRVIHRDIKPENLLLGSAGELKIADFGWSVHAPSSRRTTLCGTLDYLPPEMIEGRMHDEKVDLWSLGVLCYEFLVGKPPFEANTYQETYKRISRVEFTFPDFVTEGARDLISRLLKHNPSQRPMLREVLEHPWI
T2 sequence (Q9ULW0 1-43 partner limits assumed): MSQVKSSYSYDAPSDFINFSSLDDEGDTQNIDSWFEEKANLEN
Summary of the method: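 HTRF read-out (Eu 615 nm to APC 655 nm) of phosphorylated biotin-PLK, detected with 0.02 nM europium anti-phosphoPLK antibody and 0.0005 mg/mL SA-APC after overnight equilibration.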

HCT116 xenografts = experiment: HCT116 xenograft model (human colon carcinoma), tumor growth inhibition; assay type: in vivo; conditions: p.o., athymic nude mice
Description: Compounds of the present invention were evaluated in HCT116 xenografts, a human colon carcinoma model. […] These cells were grown as subcutaneous xenografts in female HSD (Harlan Sprague Dawley) athymic nude mice. Mice were implanted subcutaneously with 2×10^6 cells in matrigel on day 0. Treatment was initiated on day 10 with compounds of the invention at the indicated dosage p.o for 2 consecutive-days per week (intermittent schedule, such as 2 days on-5 days off) or 7-days (continuous schedule) per week, for a selected number of weeks. For example, in one study, animals were dosed with selected compound samples BID on an intermittent dosing paradigm of two days on and then 5 days off per week, for four weeks (four dosing cycles) at 15, 7.5, and 3.75 mg/kg. Tumor growth inhibition and body weights were measured throughout the study and compared to the vehicle control group. All groups were provided nutritional supplements on a daily basis throughout the study to maintain body weight. Terminal neutrophil counts were taken at the end of this study. Measures were made by ANOVA followed by Scheffe post hoc test using StatView software v5.0.1.
10 Flasks containing a total of 7.68×10^8 HCT116 tumor cells were harvested for tumor cell implantation. HCT 116 cells were re-suspended to a cell concentration of about 2×10^7 cells/ml in serum-free McCoys 5A media+50% matrigel. Cell viability was measured to be about 99.3%.
Female Athymic Nude mice approximately 14 weeks of age (Harlan Sprague Dawley) were used for the experiment. Mice were housed five per filter-capped cage in sterile housing in an environmentally controlled room (temperature 23±2° C., relative humidity 50±20%) on a 12-hr light/dark cycle. […] On Day 9, tumor-bearing mice were measured and randomized into five groups (n=10). […] During the dosing period, mouse tumor volumes were measured with a digital caliper and weighed twice per week. Tumor volumes were calculated as follows: Tumor Volume (mm^3) [(W^2×L)/2] where width (W) is defined as the smaller of the 2 measurements and length (L) is defined as the larger of the 2 measurements.

[1] = average, read-out: AurB_IC50_IP (uM Avg)
[2] = 4N DNA content, average, read-out: 24h_4N Ploidy EC50_IP (uM Avg)
[3] = average, read-out: AurA_IC50_IP (uM Avg)

T1 sequence (Q96GD4 whole entry): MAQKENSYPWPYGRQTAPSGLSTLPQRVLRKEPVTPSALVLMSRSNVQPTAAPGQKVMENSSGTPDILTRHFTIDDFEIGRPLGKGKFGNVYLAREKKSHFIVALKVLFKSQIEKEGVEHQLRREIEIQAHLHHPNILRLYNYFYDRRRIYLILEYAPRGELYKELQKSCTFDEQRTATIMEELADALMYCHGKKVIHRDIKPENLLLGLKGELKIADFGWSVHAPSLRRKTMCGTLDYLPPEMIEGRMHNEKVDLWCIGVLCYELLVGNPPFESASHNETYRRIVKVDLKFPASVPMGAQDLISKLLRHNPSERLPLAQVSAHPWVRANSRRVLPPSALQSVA

“4-(4,5-dimethylthiophen-2-yl)-N-(4-(7-methoxy-1,5-naphthyridin-4-yloxy)phenyl)phthalazin-1-amine [Example 34]” gave an IC50 (AuroraB; [1]) of 0.01 µM, an EC50 (HeLa cells; [2]) of 0.062 µM and an IC50 (AuroraA-TPX2; [3]) of 0.013 µM.
“4-(4-chlorophenyl)-N-(3-fluoro-4-(4-quinolinyloxy)phenyl)-1-phthalazinamine [compound 244]” showed an IC50 (AuroraB; [1]) of 0.003 µM, an EC50 (HeLa cells; [2]) of 0.04 µM and an IC50 (AuroraA-TPX2; [3]) of 0.048 µM.
For `COc1cnc2c(Oc3ccc(Nc4nnc(-c5ccc(Cl)cc5)c5ccccc45)cc3)ccnc2c1` [Example 160, 4-(4-chlorophenyl)-N-(4-((7-(methyloxy)-1,5-naphthyridin-4-yl)oxy)phenyl)-1-phthalazinamine], the IC50 (AuroraB; [1]) was 0.003 µM, the “inhibition of tumor growth” value (HCT116 xenografts; 3.75 mg/kg, 2-day dosing scheduling QD) was ~86% and the IC50 (AuroraA-TPX2; [3]) was 0.007 µM.
In the case of `COc1cnc2c(Oc3ccc(Nc4nnc(-c5ccc6c(c5)OCO6)c5ccccc45)cc3)ccnc2c1` [Example 165, 4-(1,3-benzodioxol-5-yl)-N-(4-((7-(methyloxy)-1,5-naphthyridin-4-yl)oxy)phenyl)-1-phthalazinamine], the IC50 (AuroraB; [1]) is reported as 0.007 µM, the “inhibition of tumor growth” value (HCT116 xenografts; 2.5 mg/kg, 2-day dosing scheduling BID) is reported as ~63% and the IC50 (AuroraA-TPX2; [3]) is reported as 0.009 µM.
`COc1cnc2c(Sc3ccc(Nc4nnc(-c5ccccc5)c5ccccc45)cc3)ccnc2c1` [Example 207, N-(4-((7-(methyloxy)-1,5-naphthyridin-4-yl)thio)phenyl)-4-phenyl-1-phthalazinamine] was tested, and the IC50 (AuroraB; [1]) was 0.009 µM, the “inhibition of tumor growth” value (HCT116 xenografts; 5.0 mg/kg, 2-day dosing scheduling QD) was ~67% and the IC50 (AuroraA-TPX2; [3]) was 0.06 µM.
Work on `CCc1cc(-c2ccc(C)cc2)nnc1Nc1ccc(Nc2ccnc3cc(C#N)ccc23)cc1` [compound 596] yielded an IC50 (AuroraB; [1]) of 0.058 µM and an IC50 (AuroraA-TPX2; [3]) of 0.16 µM.
`COc1cc2nccc(Sc3ccc(Nc4nnc(-c5ccccc5)c5ccccc45)cc3)c2nc1OC` [compound 597] was tested, and the IC50 (AuroraB; [1]) was 0.681 µM and the IC50 (AuroraA-TPX2; [3]) was 0.246 µM.
Molecule `COc1cc2nccc(Sc3ccc(Nc4nnc(-c5ccc(Cl)cc5)c5ccccc45)cc3)c2nc1OC` [compound 598] has an IC50 (AuroraB; [1]) of 0.595 µM and an IC50 (AuroraA-TPX2; [3]) of 0.135 µM.
Work on `Brc1cnc2c(Oc3ccc(Nc4nnc(-c5ccccc5)c5ccccc45)cc3)ncnc2c1` [compound 599] yielded an IC50 (AuroraB; [1]) of 0.256 µM and an IC50 (AuroraA-TPX2; [3]) of 0.794 µM.
In the case of `COc1cnc2c(Sc3ccc(Nc4nnc(N5CCN6C[C@H](F)C[C@H]6C5)c5ccccc45)cc3)ccnc2c1` [compound 600], the IC50 (AuroraB; [1]) is reported as 0.01 µM and the IC50 (AuroraA-TPX2; [3]) is reported as 0.014 µM.
`COc1cnc2c(Sc3ccc(Nc4nnc(N5CCN6CC(F)(F)C[C@H]6C5)c5ccccc45)cc3)ccnc2c1` [compound 601] gave an IC50 (AuroraB; [1]) of 0.012 µM and an IC50 (AuroraA-TPX2; [3]) of 0.021 µM.
For `COc1cnc2c(Oc3ccc(Nc4nnc(N5CCN6CCCCC[C@@H]6C5)c5ccccc45)cc3)ccnc2c1` [compound 604], the IC50 (AuroraB; [1]) was 0.013 µM and the IC50 (AuroraA-TPX2; [3]) was 0.027 µM.
`COc1cnc2c(Sc3ccc(Nc4nnc(N5CCN(S(C)(=O)=O)CC5)c5ccccc45)cc3)ccnc2c1` [compound 605] showed an IC50 (AuroraB; [1]) of 0.083 µM and an IC50 (AuroraA-TPX2; [3]) of 0.803 µM.
For `COc1cc(OC)c2c(Oc3ccc(Nc4nnc(-c5ccccc5)c5ccccc45)cn3)ncnc2c1` [compound 606], the IC50 (AuroraB; [1]) was 0.035 µM and the IC50 (AuroraA-TPX2; [3]) was > 25 µM.
`COc1cnc2c(Oc3ccc(Nc4nnc(N5CCN(S(C)(=O)=O)CC5)c5ccccc45)cc3)ccnc2c1` [compound 607] gave an IC50 (AuroraB; [1]) of 0.324 µM and an IC50 (AuroraA-TPX2; [3]) of 2.82 µM.
`COc1cnc2c(Sc3ccc(Nc4nnc(N5CCN(C(C)=O)CC5)c5ccccc45)cc3)ccnc2c1` [compound 608] gave an IC50 (AuroraB; [1]) of 0.022 µM and an IC50 (AuroraA-TPX2; [3]) of 0.352 µM.
`CCc1cc(-c2ccccc2OC)nnc1Nc1ccc(Sc2ccnc3cc(OC)cnc23)cc1` [compound 609] gave an IC50 (AuroraB; [1]) of 0.02 µM and an IC50 (AuroraA-TPX2; [3]) of 0.123 µM.
For `Clc1ccc(-c2nnc(Nc3ccc(Oc4ccnc5cc(OCc6ccccc6)cnc45)cc3)c3ccccc23)cc1` [compound 610], the IC50 (AuroraB; [1]) was 0.033 µM and the IC50 (AuroraA-TPX2; [3]) was 0.047 µM.
For `COc1ccc2c(C(C)c3ccc(Nc4nnc(-c5ccc(Cl)cc5)c5ccccc45)cc3)ccnc2c1` (centres unmarked) [compound 613], the IC50 (AuroraB; [1]) was 0.243 µM and the IC50 (AuroraA-TPX2; [3]) was > 25 µM.
`COc1ccc2c(C(O)c3ccc(Nc4nnc(-c5ccc(Cl)cc5)c5ccccc45)cc3)ccnc2c1` (centres unmarked) [compound 614] was tested, and the IC50 (AuroraB; [1]) was 0.046 µM and the IC50 (AuroraA-TPX2; [3]) was 0.223 µM.
`COc1ccc2c(C(=O)c3ccc(Nc4nnc(-c5ccc(Cl)cc5)c5ccccc45)cc3)ccnc2c1` [compound 615] gave an IC50 (AuroraB; [1]) of 0.039 µM and an IC50 (AuroraA-TPX2; [3]) of 0.3 µM.
“(7-(4-(4-(4-methylthiophen-2-yl)phthalazin-1-ylamino)phenylthio)thieno[3,2-b]pyridin-2-yl)(morpholino)methanone [compound 296]” was tested, and the IC50 (AuroraB; given as class symbol, read-out: AurB_IC50_IP (class symbol)) was < 0.1 µM, the EC50 (HeLa cells; given as class symbol, read-out: 24h_4N Ploidy EC50_IP (class symbol)) was < 0.1 µM and the IC50 (AuroraA-TPX2; given as class symbol, read-out: AurA_IC50_IP (class symbol)) was < 0.1 µM.
“N-(5-(7-methoxy-1,5-naphthyridin-4-yloxy)pyridin-2-yl)-4-phenylphthalazin-1-amine [Example 54]” showed an IC50 (AuroraB; [1]) of 0.02 µM, an EC50 (HeLa cells; [2]) of 0.028 µM and an IC50 (AuroraA-TPX2; [3]) of 0.176 µM.
